The values that follow come from patent publication US12544350B2, “Combinatorial antitumor treatment methods and related compositions, kits, and systems” (Klotho Therapeutics, Inc., priority 2021, dated 2026).

Test [1] relates to cisplatin induced acute kidney injury (CI-AKI) in mice. The test is described as follows: Cisplatin-induced acute kidney injury (CI-AKI) in mice, Compound 3 (Example 11). The test is classed as in vivo, female C57BL/6J mice. How it is done: The aim of the study was to investigate the efficacy of test compounds in the model of cisplatin induced acute kidney injury (CI-AKI) in mice. […] Serum analysis for urea (BUN) was performed on the 5th day and 9th days after cisplatin administration. The mean body weight loss per group was calculated every day of the study as percentage loss of initial (day 0) weight for each individual animal.
Study design, animal selection, handling and treatment were all in accordance with the CRO's study protocols and Institutional Animal Care and Use Guidelines. Animal treatment and serum samples preparation were conducted by the Animal Laboratory personnel at the CRO. 60 female C57BL/6J mice 9-12 weeks old were randomized by body weight and divided into 2 groups, 30 animals each. Body weights ranged from 13.9 to 22.0 g with an average body weight across all groups 17.75 g (SD=1.30; CV=7.3%). Each mouse was treated with a single dose via IP route of administration with cisplatin at the dose of 11 mg/kg on the day 0 of the study. […] The mice in Group 1 remained untreated after the cisplatin injection until the terminal sacrifice.
Cisplatin was administered without dilution as a factory-made 1 mg/ml solution for infusion at the injection volume of 11 ml/kg for the dose of 11 mg/kg. […] Only freshly prepared formulation was used for each dosing; each working formulation batch was prepared immediately prior to the administration. The working formulations were sterile filtered using 0.2 μm cellulose acetate syringe filters before injections. The dosing volume for the test compound was 5 ml/kg of body weight. The working formulations were administered as transparent clear solutions. Intraperitoneal (IP) route of administration was used in the study. Urea (BUN) was determined in the serum using a commercial kit according to the manufacturer's instructions. […] The rate of absorbance change at λ=340 nm is proportional to the urea concentration. […] Creatinine was measured using Modified Jaffe's method, without deproteinization. […]

Test [2] relates to cisplatin-induced acute kidney injury (CI-AKI) mouse model. The test is described as follows: Cisplatin-induced acute kidney injury (CI-AKI) mouse model, Compound 22 (Example 9). Type of test: in vivo, female C57BL/6J mice. The following applies: for gradual recovery of mean body weight, onset: cisplatin 11 mg/kg IP day 0. The method, then: The aim of the study was to investigate the efficacy of test compound(s) in a (mouse) model for acute kidney injury. Specifically, the study investigated the efficacy of test compound(s) in cisplatin-induced acute kidney injury (CI-AKI) mouse model. For example, the effect of daily repeated intraperitoneal (IP) administration of Compound 22 at doses of 50 mg/kg for 7 consecutive days in four different treatment regimens on development of pathology in mice in CI-AKI model was evaluated. Serum analysis for urea (BUN) was performed on the 5th day and 12th days after cisplatin administration. The mean body weight loss per group was calculated every day of the study as percentage loss of initial (day 0) weight for each individual animal.
Study design, animal selection, handling and treatment were all in accordance with the CRO's study protocols and Institutional Animal Care and Use Guidelines. Animal treatment and serum samples preparation were conducted by the Animal Laboratory personnel at the CRO. 100 female C57BL/6J mice 11-14 weeks old were randomized by body weight and divided into five groups, 20 animals each. Body weights ranged from 16.9 to 22.5 g with an average body weight across all groups 19.54 g (SD=1.04; CV=5.3%). Each mouse was treated with a single dose via IP route of administration with cisplatin at the dose of 11 mg/kg on the day 0 of the study. The mice in Group 2 and 4 were repeatedly treated with Compound 22 at the dose of 50 mg/kg with an interval of 24 h for seven consecutive days starting from Day 2 or Day 0 of the study, respectively. […]
To induce acute kidney injury, cisplatin was administered without dilution as a factory-made 1 mg/ml solution for infusion at the injection volume of 11 ml/kg for the dose of 11 mg/kg. […] Urea (BUN) was determined in the serum using a commercial kit according to the manufacturer's instructions. […] The rate of absorbance change at λ=340 nm is proportional to the urea concentration. […]

Test [3] relates to cisplatin-induced acute kidney injury (AKI) in male Sprague Dawley rats. The test is described as follows: Cisplatin-induced acute kidney injury (AKI) in rats, 90 minutes infusion (Example 12). Type of test: in vivo. To be noted: for body weight change over baseline (BWC): day 0-6, after post-treatment period, cisplatin 5 mg/kg IP. The method, then: The goal of this study was to assess the effect of compound 22 at the doses of 50 mg/kg and 25 mg/kg on the development of cisplatin-induced acute kidney injury (AKI) in male Sprague Dawley rats. Compound 22 was administrated repeatedly seven consecutive days by 90 minutes infusion into a jugular vein using automatic pumps. Treatment was initiated simultaneously with the single intraperitoneal (IP) administration of cisplatin at the dose of 5 mg/kg. The experimental animal's mortality was recorded daily. […] Serum analysis for Creatinine and Urea were performed on day −4th (blank), 1st, 3rd, 6th, 9th, and 12th (terminal) day of the study.
Rat's jugular vein catheterization. Rat's jugular vein catheterization procedure was performed on −3rd day of the study. All experimental animals were anesthetized prior to surgical intervention by Telazol at the dose of 40 mg/kg body weight and Xylazine at the dose of 8 mg/kg body weight. The anesthetized rat was placed onto a heated surgical platform. The surgical area was shaved and gently scrubbed with a drop of iodine in 96% ethanol solution. The skin incision (2 cm) was made on the right of the midline of the neck at the level of the clavicle using a scalpel. Dissected jugular vein, separated from the salivary and lymphatic tissues, was visualized and isolated approximately 5 mm section of the vessel. The cranial end of the vessel was tied using 4-0 silk ligatures. By micro surgical scissors an incision was made to pass the catheter into the vein approximately 20 mm towards the heart. The caudal end of the jugular vein was tied to catheter's collar with silk ligatures aimed to secure the place of catheter. The free end of catheter was tunneled subcutaneously and connected to a transcutaneous button that features an external port with a cap at the nape of the animal's neck. […] To prevent dehydration after the surgery animals were injected with 2 ml physiological saline intraperitoneal. To prevent catheter occlusion and ensure its functioning flushing 0.10-0.20 ml amount of physiological saline with anticoagulant (Heparin, 500 IU/ml) was applied. First time catheter flushing was performed immediately after catheter was properly positioned in the jugular vein and fixed there. The procedure was repeated prior to infusion start. When a catheter was not in use, it was locked. The infusion was started three days after the catheter placement.
Fluid infusion. Programmable automatic syringe pumps system allowed for a fluid infusion of delivering determined volume at the selected infusion time. After the catheter flushing animals were connected to the tether and the swivel setup permitted free movement of the animal during the infusion. The duration of infusion was 90 minutes. The volume of infusion was 10 ml/kg; infusion rate was determined automatically according to time of infusion and volume of the administrated formulation. The infusions were performed from 10 am to […] in a random order.
Drug formulation. Route and volume of administration. Cisplatin was administered without dilution as a factory-made 1 mg/ml solution for infusion at the injection volumes of 5 ml/kg which corresponded to the doses of 5 mg/kg. IP route was used for cisplatin administration in the study. Compound 22 was formulated in sterile conditions in physiological saline at the concentrations 5 mg/ml for the dose level 50 mg/kg and 2.5 mg/ml for the dose level 25 mg/kg and was administrated as true solution. All formulations were sterilized by filtration via Minisart RC 0.2 μm sterile syringe filter. Compound 22 infusion duration was 90 minutes. The administrated volume for all group was 10 ml/kg of the body weight.
Frequency and duration of the application. cisplatin was administered once on day 0 of the study, 30 min before first infusion. Compound 22 as well as vehicle was administrated 7 consecutive days (day 0-day 6) once per day.
Duration of the experimental period. […]

Setting [4] is: 50 mg/kg IP, 5th day after the cisplatin injection.

Take `CN(C)CCOC(=O)CCCSc1ccccc1` [Compound 3, 2-(dimcthylamino)ethyl 4-(phenylsulfanyl)butanoate]: in test [1] (setting [4]), the “mean level of creatinine in serum compared to G1” value is “significantly less” and the “mean level of urea in serum compared to G1” value is “significantly less”. The “gradual recovery of mean body weight, onset” value (“gradual recovery” for short) in test [1] (G2: 50 mg/kg IP every 24 h for seven days from Day 2, cisplatin 11 mg/kg IP day 0) is given as “beginning from the sixth day of the study”.

Regarding `C[N+](C)(C)CCOC(=O)CCCSc1ccccc1.Cl` [Compound 22, N,N,N-trimethyl-2-{[4-(phenylsulfanyl)butanoyl]oxy}ethan-1-aminium chloride], the “gradual recovery” value in test [2] (G2-G3: 50 mg/kg IP once or twice a day, days 2-8) is on record as “beginning from the fifth day of the study”. Besides, the “mean level of urea in serum compared to G1” value in test [2] (G2-G5, 50 mg/kg IP, 5th day after the cisplatin injection) is reported as “significantly less”. Moreover, in test [2] (G4-G5: 50 mg/kg IP once or twice a day, days 0-6), the “gradual recovery” value is reported as “beginning from the seventh day of the study”. Besides, in test [3] (25 mg/kg), the “body weight change, comparison with the cisplatin, vehicle group” value is given as “No statistical significance” and the “histopathology scores compared to Vehicle-treated animals with cisplatin injection” value was “no significant difference”. Besides, in test [3] (25 mg/kg infusion once per day), the “body weight change over baseline (BWC)” value is given as −17.6%. In test [3] (25 mg/kg, H&E, terminal day), the “kidney histopathology: cast deposition” value is “medium”, the “kidney histopathology: connective tissue accumulation” value is reported as “mild”, the “kidney histopathology: glomerulonephritis” value was “mild” and the “kidney histopathology: hemorrhages” value is on record as “occasional”. Further, in test [3] (25 mg/kg, H&E, terminal day), the “kidney histopathology: interstitial nephritis” value was “medium/severe”, the “kidney histopathology: loss of brush border” value is “severe”, the “kidney histopathology: loss of tubules” value was “mild” and the “kidney histopathology: necrotic loci” value is on record as “medium-frequent”. In test [3] (25 mg/kg, H&E, terminal day), the “kidney histopathology: tubular atrophy” value was “mild”, the “kidney histopathology: tubular dilation” value is reported as “medium”, the “kidney histopathology: tubular epithelium flattening” value was “medium/severe” and the “kidney histopathology: tubular epithelium loss” value was “medium”. Further, in test [3] (25 mg/kg, H&E, terminal day), the “kidney histopathology: tubular hyperplasia” value was “occasional”. Besides, in test [3] (25 mg/kg, day 6), the “serum Creatinine values compared to the cisplatin, vehicle-treated group” value is reported as “significant decrease” and the “serum Urea values compared to the cisplatin, vehicle group” value is “significant decrease”. In test [3] (50 mg/kg), the “body weight change, comparison with the cisplatin, vehicle group” value is on record as “No statistical significance” and the “histopathology scores compared to Vehicle-treated animals with cisplatin injection” value is “no significant difference”. Further, in test [3] (50 mg/kg and 25 mg/kg, end of the study period, compared to cisplatin treatment), the “severity of weight loss in individual animals (frequency distribution analysis)” value is reported as “decreases the severity of weight loss”. In addition, the “body weight change over baseline (BWC)” value in test [3] (50 mg/kg infusion once per day, survived animals) was −3.9%. Besides, in test [3] (50 mg/kg, H&E, terminal day), the “kidney histopathology: cast deposition” value is on record as “mild”, the “kidney histopathology: connective tissue accumulation” value is recorded as “mild”, the “kidney histopathology: interstitial nephritis” value is “mild/medium” and the “kidney histopathology: loss of brush border” value is “severe”. In test [3] (50 mg/kg, H&E, terminal day), the “kidney histopathology: loss of tubules” value is on record as “occasional”, the “kidney histopathology: necrotic loci” value is recorded as “occasional”, the “kidney histopathology: tubular atrophy” value is recorded as “medium/mild” and the “kidney histopathology: tubular basophilia” value is given as “occasional”. In addition, in test [3] (50 mg/kg, H&E, terminal day), the “kidney histopathology: tubular dilation” value is given as “medium”, the “kidney histopathology: tubular epithelium flattening” value is listed as “medium”, the “kidney histopathology: tubular epithelium loss” value is “medium” and the “kidney histopathology: tubular epithelium vacuolation” value is reported as “occasional”. In test [3] (50 mg/kg, H&E, terminal day), the “kidney histopathology: tubular hyperplasia” value is given as “occasional”. Also, in test [3] (50 mg/kg, day 6), the “serum Creatinine values compared to the cisplatin, vehicle-treated group” value is “significant decrease”. Further, in test [3] (50 mg/kg, day 9), the “serum Creatinine values compared to the cisplatin, vehicle-treated group” value is reported as “significant decrease” and the “serum Urea values compared to the cisplatin, vehicle group” value is “significant decrease”. The “cisplatin-induced AKI development (serum Creatinine and Urea levels during infusions and post-infusion period)” value in test [3] (both tested doses (50 mg/kg and 25 mg/kg)) was “prevented cisplatin-induced AKI development”.
